# From ChEMBL document CHEMBL3886469, “Pyrrolo pyrimidine derivatives” (2016)
# Target: T1, Tyrosine-protein kinase BTK (Homo sapiens, UniProt Q06187)
# Test: Biochemical Enzyme Assay: The inhibitory activity of the present compounds against Btk was assessed in a biochemical enzyme assay. Assay plates in 384 well format were prepared with 8-point serial dilutions for the test compounds on a Thermo CatX workstation equipped with a Innovadyne Nanodrop Express. The assay plates were prepared by addition of 50 nl per well of compound solution in 90% DMSO. The kinase reactions were started by stepwise addition of 4.5 ul per well of peptide/ATP-solution (4 uM FITC-Ahx-[…]-NH2, 164 uM ATP) in kinase buffer (50 mM HEPES, pH 7.5, 1 mM DTT, 0.02% Tween20, 0.02% BSA, 0.6% DMSO, 10 mM beta-glycerophosphate, and 10 uM sodium orthovanadate, 18 mM MgCl2, 1 mM MnCl2) and 4.5 ul per well of enzyme solution (6.4 nM full-length human recombinant BTK) in kinase buffer. Kinase reactions were incubated at 30° C. for 60 minutes and subsequently terminated by addition of 16 ul per well of stop solution (100 mM HEPES pH 7.5, 5% DMSO, 0.1% Caliper coating reagent, 10 mM EDTA, and 0.015% Brij35). Kinase reactions were analyzed on a Caliper LC3000 workstation by separating phosphorylated and unphosphorylated peptides and kinase activities were calculated from the amounts of newly formed phospho-peptide. Inhibition data were calculated by comparison to control reactions without enzyme (100% inhibition) and without inhibitors (0% inhibition).
# T1 sequence (Q06187 whole entry): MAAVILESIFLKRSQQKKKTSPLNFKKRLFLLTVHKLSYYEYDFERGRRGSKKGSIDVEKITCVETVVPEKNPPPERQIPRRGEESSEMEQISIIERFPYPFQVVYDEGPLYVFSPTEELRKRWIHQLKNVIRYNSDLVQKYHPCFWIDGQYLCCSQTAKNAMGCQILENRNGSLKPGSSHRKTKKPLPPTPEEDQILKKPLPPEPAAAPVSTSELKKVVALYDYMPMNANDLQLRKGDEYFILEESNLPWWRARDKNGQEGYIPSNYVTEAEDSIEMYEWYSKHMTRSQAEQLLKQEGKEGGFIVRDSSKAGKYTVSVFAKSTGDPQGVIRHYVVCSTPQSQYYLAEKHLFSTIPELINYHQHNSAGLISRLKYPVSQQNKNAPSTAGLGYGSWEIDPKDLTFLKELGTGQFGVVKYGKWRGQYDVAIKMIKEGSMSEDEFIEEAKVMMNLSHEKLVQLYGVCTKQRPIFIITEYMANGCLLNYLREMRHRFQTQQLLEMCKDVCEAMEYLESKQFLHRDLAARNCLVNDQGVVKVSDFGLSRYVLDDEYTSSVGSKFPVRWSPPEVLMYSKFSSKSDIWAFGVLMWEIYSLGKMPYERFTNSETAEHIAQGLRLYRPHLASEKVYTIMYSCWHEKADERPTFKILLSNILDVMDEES
row,IC50,Structure (SMILES)
1,3 nM,C=C(C)c1ccc(C(=O)Nc2cc(F)cc(-c3ncnc4[nH]c(C5=CCN(C(=O)N(C)C)CC5)cc34)c2C)cc1
2,13 nM,Cc1c(NC(=O)c2ccc(C(C)(C)O)cc2F)cc(F)cc1-c1ncnc2[nH]c(C3=CCN(C(=O)N(C)C)CC3)cc12
3,4 nM,Cc1c(NC(=O)c2ccc(C3CC3)cc2)cc(F)cc1-c1ncnc2[nH]c(C3=CCN(C(=O)CC#N)CC3)cc12
4,110 nM,Cc1c(NC(=O)c2ccc(C(C)(C)C)cc2)cc(F)cc1-c1ncnc2[nH]c(C3=CCC4(CC3)OCCO4)cc12
5,23 nM,Cc1c(NC(=O)c2ccc(C(C)(C)C)cc2)cc(F)cc1-c1ncnc2[nH]c(C3=CCSCC3)cc12

# Target: T1, Tyrosine-protein kinase BTK
# Test: Cellular Assay: Alternatively, the present compounds might also be assessed for their capacity to inhibit Btk-dependent FcG receptor-induced IL-8 secretion in human cells. The human myeloid leukemia THP1 cell line (ATCC TIB202) was grown in RPMI 1640 medium supplemented with 10% FCS and 15 nM 1, 25-dihydroxy Vitamin D3 during 4 days before use to induced myeloid differentiation. A sufficient number of tissue-culture grade 384-well plates was coated with human IgG of unknown specificity by incubating overnight at 4° C. with 40 ul/well of a 50 ug/ml IgG solution in PBS. On the day of the experiment, plates were washed 5 times with 80 ul water on a Molecular Devices Aquamax DW4 plate washer. Solutions of the test compounds in 90% DMSO were added to each well on a Hamilton Microlab Star liquid handling station to 40 ul/well tissue culture medium and the total DMSO concentration was adjusted to 0.1%. Differentiated THP1 cells were then added in 40 ul/well to reach a final density of 5'000 cells/well in 80 ul culture medium. After 24 hours, IL-8 secretion was measured in the supernatant by the IL-8 HTRF assay following the protocol of the vendor (CisBio international).
# Type: cell-based, THP-1
row,IC50,Structure (SMILES)
1,94 nM,Cc1c(NC(=O)c2ccc(C(C)(C)C)cc2)cc(F)cc1-c1ncnc2[nH]c(C3=CCSCC3)cc12
